Assay results taken from the supplement of paper PMC10307832.

How the values were obtained:
Experiment in all cases: relative viability (nuclei count vs DMSO), 5 days (fraction); higher = more cells survive
Avagacestat + Bortezomib = compound: NC(=O)[C@@H](CCC(F)(F)F)N(Cc1ccc(-c2ncon2)cc1F)S(=O)(=O)c1ccc(Cl)cc1 [Avagacestat] + CC(C)C[C@H](NC(=O)[C@H](Cc1ccccc1)NC(=O)c1cnccn1)B(O)O [Bortezomib] (partner 0.002 µM)
In short: (§1)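 Each reported value is a median over duplicate plates. It expresses relative viability: treated-well nuclei count divided by vehicle-well nuclei count. Lung cancer cell lines in 1536-well plates were dosed by pin tool a day after seeding, alone with one drug or with a fixed anchor-drug dose plus five library-drug doses (not always all listed) in √10 steps, and nuclei were counted after 5 days.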

Avagacestat + Navitoclax = compound: NC(=O)[C@@H](CCC(F)(F)F)N(Cc1ccc(-c2ncon2)cc1F)S(=O)(=O)c1ccc(Cl)cc1 [Avagacestat] + CC1(C)CCC(c2ccc(Cl)cc2)=C(CN2CCN(c3ccc(C(=O)NS(=O)(=O)c4ccc(N[C@H](CCN5CCOCC5)CSc5ccccc5)c(S(=O)(=O)C(F)(F)F)c4)cc3)CC2)C1 [Navitoclax] (partner 0.5 µM)
In short: as §1

Avagacestat + Dasatinib = compound: NC(=O)[C@@H](CCC(F)(F)F)N(Cc1ccc(-c2ncon2)cc1F)S(=O)(=O)c1ccc(Cl)cc1 [Avagacestat] + Cc1nc(Nc2ncc(C(=O)Nc3c(C)cccc3Cl)s2)cc(N2CCN(CCO)CC2)n1 [Dasatinib] (partner 0.075 µM)
In short: as §1

Avagacestat + Luminespib = compound: NC(=O)[C@@H](CCC(F)(F)F)N(Cc1ccc(-c2ncon2)cc1F)S(=O)(=O)c1ccc(Cl)cc1 [Avagacestat] + CCNC(=O)c1noc(-c2cc(C(C)C)c(O)cc2O)c1-c1ccc(CN2CCOCC2)cc1 [Luminespib] (partner 0.01 µM)
In short: as §1

Cell Line	relative viability (Avagacestat + Bortezomib; first compound 0.08 µM)	relative viability (Avagacestat + Bortezomib; first compound 0.253 µM)	relative viability (Avagacestat + Bortezomib; first compound 0.8 µM)	relative viability (Avagacestat + Bortezomib; first compound 2.53 µM)	relative viability (Avagacestat + Bortezomib; first compound 8 µM)	relative viability (Avagacestat + Navitoclax; first compound 0.08 µM)	relative viability (Avagacestat + Navitoclax; first compound 0.253 µM)	relative viability (Avagacestat + Navitoclax; first compound 0.8 µM)	relative viability (Avagacestat + Navitoclax; first compound 2.53 µM)	relative viability (Avagacestat + Navitoclax; first compound 8 µM)	relative viability (Avagacestat + Dasatinib; first compound 0.08 µM)	relative viability (Avagacestat + Dasatinib; first compound 0.253 µM)	relative viability (Avagacestat + Dasatinib; first compound 0.8 µM)	relative viability (Avagacestat + Dasatinib; first compound 2.53 µM)	relative viability (Avagacestat + Dasatinib; first compound 8 µM)	relative viability (Avagacestat + Luminespib; first compound 0.08 µM)	relative viability (Avagacestat + Luminespib; first compound 0.253 µM)	relative viability (Avagacestat + Luminespib; first compound 0.8 µM)	relative viability (Avagacestat + Luminespib; first compound 2.53 µM)	relative viability (Avagacestat + Luminespib; first compound 8 µM)
LU99A	1.28	1.13	0.938	1.1	1.19	0.869	0.8	0.776	0.852	0.777	0.483	0.542	0.455	0.444	0.471	0.308	0.199	0.305	0.247	0.213
LXF-289	1.04	1.1	0.972	0.99	0.911	0.964	0.996	1	1	0.885	0.196	0.183	0.168	0.191	0.152	0.794	0.675	0.912	0.686	0.603
NCI-H23	1.19	1.42	1.12	1	0.822	0.876	0.993	0.99	0.877	0.943	0.859	0.875	0.937	0.733	0.912	0.229	0.235	0.215		0.223
NCI-H322M	1.27	1.23	1.4	1.05	1.17	1.24	1.16	1.22	1.14	1.07	0.281	0.242	0.247	0.251	0.257	0.862	0.875	0.927	0.695	0.638
NCI-H441	0.66	0.925	0.531	0.485	0.248	0.504	0.491	1.01	0.49	0.668	0.518	0.471	0.541	0.532	0.454	0.441	0.403	0.327	0.361	0.301
NCI-H460			1.36	1.18	1.15		1.92	1.37	0.759	1.15	0.625	0.59	0.747	0.402	0.475	0.0352	0.0325	0.0362	0.0361	0.0325
NCI-H520	0.728	0.555	0.679	0.48	0.334	1.16	1.15	1.06	0.95	1.06	0.267	0.16	0.158	0.168	0.162	0.223	0.241	0.239	0.218	0.23
NCI-H596	0.956	1.13	1.13	1.14	0.823	1.21	1.02	0.928	0.792	0.865	0.592	0.651	0.654	0.451	0.648	1.19	0.876	1.35	0.924	0.756
NCI-H647	1.66	1.15	1.14	1.06	0.922	1.27	1.5	1.31	1.02	0.952	0.195	0.188	0.232	0.118	0.147	0.184	0.148	0.146	0.15	0.12
NCI-H727	0.956	0.927	1.04	0.981	0.828	0.408	0.461	0.596	0.339	0.459	0.35	0.355	0.5	0.369	0.41	0.36	0.343	0.289	0.355	0.39
NCI-H838	0.977	0.922	0.93	0.863	0.502	1.55	1.52	1.31	1.06	1.13	0.293	0.285	0.328	0.309	0.253	0.363	0.256	0.233	0.254	0.191
NCI-H1355	1.37	1.38	1.33	1.14	1.1	1.14	0.999	0.923	0.768	0.833	0.688	0.754	0.687	0.557	0.62	0.769	0.717	0.797	0.635	0.641
NCI-H1437	0.602	0.69	0.519	0.379	0.282	1.39	1.22	1.1	1.04	0.979	0.283	0.278	0.346	0.291	0.211	1.4	1.28	1.12	1.17	1.05
NCI-H1650	0.212	0.232	0.196	0.211	0.21	1.1	1.31	1.52	1.43	1.12	0.37	0.35	0.272	0.304	0.346	0.222	0.203	0.212	0.202	0.193
NCI-H1651	1.06	1.07	1.05	0.944	0.933	1.28	1.33	1.3	1.07	0.764	0.477	0.426	0.454	0.38	0.342	1.09	0.931	0.726	0.719	0.852
NCI-H1666	0.942	0.78	0.861	0.83	0.842	1.15	1.11	1.17	0.955	1.02	0.819	0.739	0.876	0.783	0.653	1.29	1.21	1.12	1.07	1.13
